Columns and labels:
SARS-CoV-2 3CLpro = SARS-CoV-2 3CLpro (Severe acute respiratory syndrome coronavirus 2, UniProt P0DTD1); assay: FRET based protease assay, SARS-CoV-2 3CL; format: biochemical, SARS-CoV-2 (strain BetaCoV/Wuhan/WIV04/2019)
MERS-CoV 3CLpro = MERS-CoV 3CLpro (Middle East respiratory syndrome-related coronavirus, UniProt K9N638); assay: biochemical; conditions: MERS IC50, 75 nM MERS-CoV 3CLpro, 6 μM peptide 1 substrate, 25° C., 1.5 hrs, pH 7.5
MERS-CoV 3CLpro, sequence (K9N638 3248-3553 limits assumed): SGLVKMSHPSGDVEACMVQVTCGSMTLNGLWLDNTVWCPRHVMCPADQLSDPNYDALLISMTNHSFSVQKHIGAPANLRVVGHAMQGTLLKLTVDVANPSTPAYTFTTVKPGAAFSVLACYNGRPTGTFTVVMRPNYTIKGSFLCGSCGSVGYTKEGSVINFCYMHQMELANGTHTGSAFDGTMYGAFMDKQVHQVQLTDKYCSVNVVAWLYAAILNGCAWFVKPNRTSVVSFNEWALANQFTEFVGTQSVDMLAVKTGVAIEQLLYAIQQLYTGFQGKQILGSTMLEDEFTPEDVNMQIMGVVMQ

Row | SMILES | IC50 (SARS-CoV-2 3CLpro) [µM] | IC50 (MERS-CoV 3CLpro) [µM]
1 | CC(C)C[C@@H]1NC(=O)CCCC[C@@H]2CNC(=O)[C@@H]2C[C@@H](C=O)NC1=O [Example 1] | 1 to 20 | > 20
2 | CC(C)C[C@@H]1NC(=O)CCCC[C@H]2CNC(=O)[C@H]2C[C@@H](C=O)NC1=O [Example 2] | 1 to 20 | > 20
3 | CC(C)C[C@@H]1NC(=O)CCCC[C@H]2CNC(=O)[C@@H]2C[C@@H](C=O)NC1=O [Example 4] | < 0.1 | 0.1 to 1
4 | CC(C)C[C@@H]1NC(=O)[C@@H](Cc2ccccc2)CCC[C@@H]2CNC(=O)[C@@H]2C[C@@H](C=O)NC1=O [Example 9] | 0.1 to 1 | 1 to 20
5 | CC(C)C[C@@H]1NC(=O)[C@@H](Cc2ccccc2)CCC[C@H]2CNC(=O)[C@@H]2C[C@@H](C=O)NC1=O [Example 10] |  | 1 to 20
6 | CC(C)C[C@@H]1NC(=O)[C@H](Cc2ccccc2)CCC[C@@H]2CNC(=O)[C@@H]2C[C@@H](C=O)NC1=O [Example 11] | 1 to 20 | 1 to 20
7 | CC(C)C[C@@H]1NC(=O)[C@H](Cc2ccccc2)CCC[C@H]2CNC(=O)[C@H]2C[C@@H](C=O)NC1=O [Example 12] | 0.1 to 1 | 1 to 20
8 | CC(C)C[C@@H]1NC(=O)[C@@H](C2CCCC2)CCC[C@H]2CNC(=O)[C@H]2C[C@@H](C=O)NC1=O [Example 13] | 1 to 20 | 1 to 20
9 | CC(C)C[C@@H]1NC(=O)[C@@H](C2CCCC2)CCC[C@@H]2CNC(=O)[C@@H]2C[C@@H](C=O)NC1=O [Example 14] | 0.1 to 1 | 1 to 20
10 | CC(C)C[C@@H]1NC(=O)[C@@H](NC(=O)OC(C)(C)C)CCC[C@H]2CNC(=O)[C@H]2C[C@@H](C=O)NC1=O [Example 15] | 0.1 to 1 | 0.1 to 1
11 | CC(C)C[C@@H]1NC(=O)[C@@H](NC(=O)OC(C)(C)C)CCC[C@@H]2CNC(=O)[C@@H]2C[C@@H](C=O)NC1=O [Example 16] | 0.1 to 1 | 1 to 20
12 | CC(C)C[C@@H]1NC(=O)[C@@H](Cc2ccccc2)CCC[C@H]2CNC(=O)[C@@H]2C[C@@H](C=O)NC1=O [Example 17] | 0.1 to 1 | 0.1 to 1
13 | CC(C)C[C@@H]1NC(=O)[C@@H](CC2CCCC2)CCC[C@H]2CNC(=O)[C@@H]2C[C@@H](C=O)NC1=O [Example 18] | 0.1 to 1 | 0.1 to 1
14 | CC(C)C[C@@H]1NC(=O)[C@@H](NC(=O)OC(C)(C)C)CCC[C@H]2CNC(=O)[C@@H]2C[C@@H](C=O)NC1=O [Example 19] | < 0.1 | 0.1 to 1
15 | CC(C)C[C@@H]1NC(=O)[C@@H](OC(C)(C)C)CCC[C@H]2CNC(=O)[C@@H]2C[C@@H](C=O)NC1=O [Example 20] | 1 to 20 | > 20
16 | CC(C)C[C@@H]1NC(=O)[C@H](Cc2ccccc2)CCC[C@H]2CNC(=O)[C@@H]2C[C@@H](C=O)NC1=O [Example 21] | < 0.1 | 0.1 to 1
17 | CC(C)C[C@@H]1NC(=O)[C@@H](N(C)C(=O)OC(C)(C)C)CCC[C@H]2CNC(=O)[C@@H]2C[C@@H](C#N)NC1=O [Example 22] | > 20 | > 20
18 | CC(C)C[C@@H]1NC(=O)C(OC2CCCCC2)CCC[C@H]2CNC(=O)[C@@H]2C[C@@H](C#N)NC1=O (stereo partly shown) [Example 23] | > 20 | > 20
19 | CC(C)C[C@@H]1NC(=O)CCCC[C@H]2CNC(=O)[C@@H]2C[C@@H](C#N)NC1=O [Example 24] | 1 to 20 | 1 to 20
20 | CC1(C)[C@@H]2[C@H]3C(=O)N[C@H](C#N)C[C@H]4C(=O)NC[C@@H]4CCCCC(=O)N3C[C@@H]21 [Example 25] | 1 to 20 | 1 to 20
21 | N#C[C@@H]1C[C@H]2C(=O)NC[C@@H]2CCCCC(=O)N2C[C@@H]3CCC[C@@H]3[C@H]2C(=O)N1 [Example 26] | > 20 | > 20
22 | CC(C)C[C@@H]1NC(=O)[C@@H](Cc2ccccc2)CCC[C@H]2CNC(=O)[C@@H]2C[C@@H](C#N)NC1=O [Example 27] | 1 to 20 | 1 to 20
23 | CC(C)C[C@@H]1NC(=O)[C@@H](C2CCCC2)CCC[C@H]2CNC(=O)[C@@H]2C[C@@H](C#N)NC1=O [Example 28] | 1 to 20 | 1 to 20
24 | CC(C)C[C@@H]1NC(=O)[C@@H](OC(C)(C)C)CCC[C@H]2CNC(=O)[C@@H]2C[C@@H](C#N)NC1=O [Example 29] | > 20 | > 20
25 | CC(C)C[C@@H]1NC(=O)CCCCC[C@H]2CNC(=O)[C@H]2C[C@@H](C=O)NC1=O [Example 30] | 0.1 to 1 | 1 to 20

Row | SMILES | IC50 (SARS-CoV-2 3CLpro) [µM] | IC50 (MERS-CoV 3CLpro) [µM]
26 | CC(C)C[C@@H]1NC(=O)CCCCC[C@@H]2CNC(=O)[C@H]2C[C@@H](C=O)NC1=O [Example 31] | > 20 | > 20
27 | CC(C)C[C@@H]1NC(=O)CCCCC[C@H]2CNC(=O)[C@@H]2C[C@@H](C=O)NC1=O [Example 32] | 0.1 to 1 | 0.1 to 1
28 | CC(C)C[C@@H]1NC(=O)CCCCC[C@@H]2CCNC(=O)[C@H]2C[C@@H](C=O)NC1=O [Example 33] | > 20 | > 20
29 | CC(C)C[C@@H]1NC(=O)CCCCC[C@H]2CCNC(=O)[C@@H]2C[C@@H](C=O)NC1=O [Example 34] | 0.1 to 1 | 1 to 20
30 | CC(C)C[C@@H]1NC(=O)[C@@H](Cc2ccccc2)CCCC[C@@H]2CNC(=O)[C@@H]2C[C@@H](C=O)NC1=O [Example 35] | 1 to 20 | 
31 | CC(C)C[C@@H]1NC(=O)[C@@H](Cc2ccccc2)CCCC[C@H]2CNC(=O)[C@H]2C[C@@H](C=O)NC1=O [Example 36] | < 0.1 | 0.1 to 1
32 | CC(C)C[C@@H]1NC(=O)[C@@H](Cc2ccccc2)CCCC[C@H]2CNC(=O)[C@@H]2C[C@@H](C=O)NC1=O [Example 37] | < 0.1 | 0.1 to 1
33 | CC(C)C[C@@H]1NC(=O)CCCCC[C@H]2CNC(=O)[C@H]2C[C@@H](C#N)NC1=O [Example 38] | 1 to 20 | > 20
34 | CC(C)C[C@@H]1NC(=O)[C@@H](Cc2ccccc2)CCCC[C@H]2CNC(=O)[C@H]2C[C@@H](C#N)NC1=O [Example 39] | 0.1 to 1 | 1 to 20
35 | CC(C)C[C@@H]1NC(=O)[C@@H](Cc2cccc(C(F)(F)F)c2)CCCC[C@H]2CNC(=O)[C@H]2C[C@@H](C#N)NC1=O [Example 40] | 1 to 20 | 1 to 20
36 | CC(C)C[C@@H]1NC(=O)[C@@H](C2CCCC2)CCCC[C@H]2CNC(=O)[C@H]2C[C@@H](C#N)NC1=O [Example 41] | > 20 | 
37 | CC(C)C[C@@H]1NC(=O)[C@@H](Cc2ccc(F)cc2)CCCC[C@@H]2CNC(=O)[C@@H]2C[C@@H](C#N)NC1=O [Example 42] | 1 to 20 | 1 to 20
38 | CC(C)C[C@@H]1NC(=O)[C@@H](Cc2ccc(F)cc2)CCCC[C@H]2CNC(=O)[C@H]2C[C@@H](C#N)NC1=O [Example 43] | 1 to 20 | 1 to 20
39 | CC(C)C[C@@H]1NC(=O)[C@@H](NC(=O)C(C)(C)C)CCCC[C@H]2CNC(=O)[C@H]2C[C@@H](C#N)NC1=O [Example 44] | < 0.1 | 0.1 to 1
40 | CC(C)C[C@@H]1NC(=O)CCCCCC[C@H]2CNC(=O)[C@H]2C[C@@H](C=O)NC1=O [Example 45] | 0.1 to 1 | 1 to 20
41 | CC(C)C[C@@H]1NC(=O)CCCCCC[C@@H]2CNC(=O)[C@@H]2C[C@@H](C=O)NC1=O [Example 46] | 1 to 20 | 1 to 20
42 | CC(C)C[C@@H]1NC(=O)CCCCCC[C@@H]2CNC(=O)[C@H]2C[C@@H](C=O)NC1=O [Example 47] | 1 to 20 | > 20
43 | CC(C)C[C@@H]1NC(=O)CCCCCC[C@H]2CNC(=O)[C@@H]2C[C@@H](C=O)NC1=O [Example 48] | 0.1 to 1 | 0.1 to 1
44 | CC(C)C[C@@H]1NC(=O)[C@@H](Cc2ccccc2)CCCCC[C@@H]2CNC(=O)[C@@H]2C[C@@H](C#N)NC1=O [Example 49] | > 20 | > 20
45 | CC(C)C[C@@H]1NC(=O)[C@@H](Cc2ccccc2)CCCCC[C@H]2CNC(=O)[C@H]2C[C@@H](C#N)NC1=O [Example 50] | 1 to 20 | 1 to 20
46 | CC(C)C[C@@H]1NC(=O)CCCCCC[C@@H]2CNCC(=O)[C@H]2C[C@@H](C=O)NC1=O [Example 51] | 1 to 20 | > 20
47 | CC(C)C[C@@H]1NC(=O)CCCCCC[C@H]2CNCC(=O)[C@@H]2C[C@@H](C=O)NC1=O [Example 52] | 0.1 to 1 | 1 to 20
48 | CC(C)(C)C[C@@H]1NC(=O)[C@@H](NC(=O)C(C)(C)C)CCCC[C@H]2CNC(=O)[C@H]2C[C@@H](C#N)NC1=O [Example 53] | < 0.1 | 0.1 to 1
49 | CC(C)(C)OC(=O)N[C@H]1CCCC[C@H]2CCNC(=O)[C@H]2C[C@@H](C#N)NC(=O)[C@@H]2[C@@H]3[C@H](CN2C1=O)C3(C)C [Example 96] |  | < 0.1

From patent US20260325540A1 (priority 2023, published 2026)
